Source: ChEMBL document CHEMBL1144228, “Isoxazolo[3,4-b]quinoline-3,4(1H,9H)-diones as unique, potent and selective inhibitors for Pim-1 and Pim-2 kinases: chemistry, biological activities, and molecular modeling” (Bioorg Med Chem Lett, 2008)

Key:
[1] = target: Serine/threonine-protein kinase pim-2 (Homo sapiens, UniProt Q9P1W9); assay: Inhibition of Pim2
[2] = target: Serine/threonine-protein kinase pim-1 (Homo sapiens, UniProt P11309); assay: Inhibition of Pim1
[3] = Inhibition of Casein kinase 2
[4] = target: T1, 5'-AMP-activated protein kinase subunit beta-1 (Homo sapiens, UniProt Q9Y478); assay: Inhibition of AMPK
T1 sequence (Q9Y478 whole entry): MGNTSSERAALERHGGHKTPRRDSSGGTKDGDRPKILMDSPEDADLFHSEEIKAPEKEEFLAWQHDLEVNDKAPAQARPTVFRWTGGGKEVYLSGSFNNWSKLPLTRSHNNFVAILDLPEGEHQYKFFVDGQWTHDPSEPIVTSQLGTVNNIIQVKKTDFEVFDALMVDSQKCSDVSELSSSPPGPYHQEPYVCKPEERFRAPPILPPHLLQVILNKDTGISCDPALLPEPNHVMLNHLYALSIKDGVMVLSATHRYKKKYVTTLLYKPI

[5] = Inhibition of Aurora1
[6] = target: T2, Protein kinase C iota type (Homo sapiens, UniProt P41743); assay: Inhibition of PKCiota
T2 sequence (P41743 whole entry): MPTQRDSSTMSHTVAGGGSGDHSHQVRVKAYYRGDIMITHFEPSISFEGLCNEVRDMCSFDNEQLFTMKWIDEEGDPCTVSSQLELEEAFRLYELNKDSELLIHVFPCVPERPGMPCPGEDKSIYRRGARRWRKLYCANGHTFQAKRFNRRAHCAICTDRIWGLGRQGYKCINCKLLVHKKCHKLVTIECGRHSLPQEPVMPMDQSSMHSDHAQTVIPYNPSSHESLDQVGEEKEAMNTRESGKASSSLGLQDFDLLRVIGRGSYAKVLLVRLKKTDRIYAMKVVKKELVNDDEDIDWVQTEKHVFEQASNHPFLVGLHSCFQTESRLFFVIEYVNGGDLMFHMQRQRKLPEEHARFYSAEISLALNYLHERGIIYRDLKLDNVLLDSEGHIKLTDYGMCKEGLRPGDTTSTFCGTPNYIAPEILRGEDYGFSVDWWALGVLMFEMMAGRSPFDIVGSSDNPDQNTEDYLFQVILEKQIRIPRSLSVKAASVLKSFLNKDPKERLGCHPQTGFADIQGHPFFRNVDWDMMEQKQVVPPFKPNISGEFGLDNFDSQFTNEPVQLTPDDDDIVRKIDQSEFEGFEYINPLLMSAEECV

[7] = target: Serine/threonine-protein kinase MARK1 (Homo sapiens, UniProt Q9P0L2); assay: Inhibition of MARK
[8] = Inhibition of Aurora2
[9] = Inhibition of PKA

Serine/threonine-protein kinase pim-2, sequence (Q9P1W9 whole entry): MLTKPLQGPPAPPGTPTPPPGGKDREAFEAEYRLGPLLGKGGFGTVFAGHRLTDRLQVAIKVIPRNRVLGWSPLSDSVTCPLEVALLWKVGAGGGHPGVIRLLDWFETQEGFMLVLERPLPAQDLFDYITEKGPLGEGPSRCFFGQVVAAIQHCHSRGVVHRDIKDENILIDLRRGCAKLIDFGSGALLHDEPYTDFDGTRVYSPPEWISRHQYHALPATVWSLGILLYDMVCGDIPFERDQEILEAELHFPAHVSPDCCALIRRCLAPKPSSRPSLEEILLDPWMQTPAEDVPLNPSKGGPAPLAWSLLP
Serine/threonine-protein kinase pim-1, sequence (P11309 whole entry): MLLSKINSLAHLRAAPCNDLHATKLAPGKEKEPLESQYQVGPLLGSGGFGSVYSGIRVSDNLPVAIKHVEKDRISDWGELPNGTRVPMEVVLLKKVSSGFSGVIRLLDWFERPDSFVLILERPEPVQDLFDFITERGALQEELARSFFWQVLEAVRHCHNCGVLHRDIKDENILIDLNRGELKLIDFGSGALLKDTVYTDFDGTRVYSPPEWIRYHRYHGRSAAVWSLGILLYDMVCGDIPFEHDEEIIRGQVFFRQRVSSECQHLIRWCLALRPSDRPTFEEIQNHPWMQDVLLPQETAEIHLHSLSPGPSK
Serine/threonine-protein kinase MARK1, sequence (Q9P0L2 whole entry): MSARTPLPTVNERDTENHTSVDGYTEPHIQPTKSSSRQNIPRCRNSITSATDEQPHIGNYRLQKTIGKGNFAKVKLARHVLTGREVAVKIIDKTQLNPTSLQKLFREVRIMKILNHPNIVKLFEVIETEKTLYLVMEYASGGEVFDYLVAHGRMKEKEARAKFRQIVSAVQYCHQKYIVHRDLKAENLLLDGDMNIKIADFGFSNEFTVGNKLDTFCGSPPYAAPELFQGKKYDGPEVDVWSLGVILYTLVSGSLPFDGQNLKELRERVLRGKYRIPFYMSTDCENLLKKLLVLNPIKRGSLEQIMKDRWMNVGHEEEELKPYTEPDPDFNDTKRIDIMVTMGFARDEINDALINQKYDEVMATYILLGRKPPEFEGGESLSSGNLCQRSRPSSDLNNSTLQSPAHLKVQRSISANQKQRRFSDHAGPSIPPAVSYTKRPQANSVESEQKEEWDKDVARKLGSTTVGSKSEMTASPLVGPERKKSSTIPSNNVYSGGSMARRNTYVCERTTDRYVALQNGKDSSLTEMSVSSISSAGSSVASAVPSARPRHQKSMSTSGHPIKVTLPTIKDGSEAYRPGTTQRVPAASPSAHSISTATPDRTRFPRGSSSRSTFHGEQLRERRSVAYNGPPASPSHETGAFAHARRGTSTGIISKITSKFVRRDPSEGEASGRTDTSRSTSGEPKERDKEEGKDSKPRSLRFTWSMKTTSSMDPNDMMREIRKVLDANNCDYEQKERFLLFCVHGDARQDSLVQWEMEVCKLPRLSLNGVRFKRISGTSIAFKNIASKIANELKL

SMILES	Ki [1] [nM]	Ki [2] [nM]	further results
CCn1c2cc(Cl)c(F)cc2c(=O)c2c(=O)on(Cc3cccc(O)c3)c21	> 1420	271	
CCn1c2cc(Cl)c(OC)cc2c(=O)c2c(=O)o[nH]c21	> 1420	2700	
CCn1c2cc(Cl)c(F)cc2c(=O)c2c(=O)on(CCO)c21	> 1420	1160	
CCn1c2cc(Cl)c(F)cc2c(=O)c2c(=O)on(CCOCc3ccccc3)c21	> 1420	4890	

The next lines start with results.

Ki [1] [nM]	Ki [2] [nM]	SMILES	further results
> 1420	1270	CCn1c2cc(Cl)c(F)cc2c(=O)c2c(=O)on(Cc3ccccc3)c21	
62.8	12.3	CC(C)n1c2cc(Cl)c(F)cc2c(=O)c2c(=O)o[nH]c21	
43.5		CCn1c2cc(Cl)c(O)cc2c(=O)c2c(=O)o[nH]c21	Ki [3]: 1070 nM; Ki [4]: 1730 nM; Ki [5]: > 6880 nM; Ki [6]: > 8330 nM; Ki [7]: > 8440 nM; Ki [8]: > 6670 nM; Ki [9]: > 7500 nM
558	36.5	O=c1o[nH]c2c1c(=O)c1cc(F)c(Cl)cc1n2Cc1ccccc1	
165	15	CCCCn1c2cc(Cl)c(F)cc2c(=O)c2c(=O)o[nH]c21	
